Source: ChEMBL document CHEMBL1134530, “Synthesis and biological activity of 7-oxo substituted analogues of 5-deaza-5,6,7,8-tetrahydrofolic acid (5-DATHF) and 5,10-dideaza-5,6,7,8-tetrahydrofolic acid (DDATHF)” (J Med Chem, 2001)
≈ marks a conversion by molar mass, not a printed value.

tested on: CCRF-CEM; test: Compound was tested for cytotoxic activity in CCRF-CEM Human Leukemia cells by in vitro cytotoxicity assay; format: functional, cell-based

Row | SMILES | IC50 [ng/mL]
1 | Nc1nc(O)c2c(n1)NCC(CCc1ccc(C(=O)NC(CCC(=O)O)C(=O)O)cc1)C2 (stereo not given) | 7 (≈ 0.0158 µM)
2 | CN(CC1Cc2c(O)nc(N)nc2NC1=O)c1ccc(C(=O)NC(CCC(=O)O)C(=O)O)cc1 (stereo not given) | > 20000
3 | Nc1nc(O)c2c(n1)NC(=O)C(CCc1ccc(C(=O)NC(CCC(=O)O)C(=O)O)cc1)C2 (stereo not given) | > 20000
4 | Nc1nc(O)c2c(n1)NC(=O)C(CNc1ccc(C(=O)NC(CCC(=O)O)C(=O)O)cc1)C2 (stereo not given) | > 20000
5 | CN(Cc1cnc2nc(N)nc(N)c2n1)c1ccc(C(=O)N[C@@H](CCC(=O)O)C(=O)O)cc1 [METHOTREXATE] | 4 (≈ 0.0088 µM)
